Source: ChEMBL document CHEMBL1909046, “DrugMatrix in vitro pharmacology data”

Tests used:
[1] = biological target: Protein phosphatase 3 catalytic subunit alpha (Homo sapiens, UniProt Q08209); parameters: species or system Escherichia coli;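 also: inhibition of calcineurin (PP2B) enzyme activity, measured with DiFMUP as the substrate; in other assays of this panel Not Active means under 50% inhibition at 10 µM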
[2] = biological target: Matrix metalloproteinase-9 (Homo sapiens, UniProt P14780); assay type: cell-based;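 also: inhibition of isolated MMP-9 enzyme activity toward a synthetic peptide substrate, from the DrugMatrix protease screening panel; in other assays of this panel Not Active means under 50% inhibition at 10 µM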
Sequence of Matrix metalloproteinase-9 (P14780 whole entry): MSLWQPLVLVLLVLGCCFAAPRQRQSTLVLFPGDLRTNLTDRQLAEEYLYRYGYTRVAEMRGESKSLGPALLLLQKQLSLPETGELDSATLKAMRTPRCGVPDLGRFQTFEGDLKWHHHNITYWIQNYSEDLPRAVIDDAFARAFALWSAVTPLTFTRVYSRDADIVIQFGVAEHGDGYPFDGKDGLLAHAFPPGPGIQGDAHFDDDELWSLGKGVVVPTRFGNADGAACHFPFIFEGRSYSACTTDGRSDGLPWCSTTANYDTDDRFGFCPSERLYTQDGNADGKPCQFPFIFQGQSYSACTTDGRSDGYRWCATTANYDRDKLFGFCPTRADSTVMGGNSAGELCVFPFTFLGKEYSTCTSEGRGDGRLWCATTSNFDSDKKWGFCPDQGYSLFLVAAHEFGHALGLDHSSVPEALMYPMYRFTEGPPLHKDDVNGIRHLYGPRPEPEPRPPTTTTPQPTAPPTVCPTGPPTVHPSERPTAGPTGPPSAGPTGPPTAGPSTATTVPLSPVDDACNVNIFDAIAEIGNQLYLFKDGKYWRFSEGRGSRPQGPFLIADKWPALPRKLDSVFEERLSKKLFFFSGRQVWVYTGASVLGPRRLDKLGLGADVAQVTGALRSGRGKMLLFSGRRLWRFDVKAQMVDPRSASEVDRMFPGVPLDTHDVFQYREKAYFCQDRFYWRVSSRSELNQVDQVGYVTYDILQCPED

[3] = DRUGMATRIX: Calcium Channel Type L, Benzothiazepine radioligand binding (ligand: [3H] Diltiazem); assay type: cell membranes, Rattus norvegicus, Wistar, Brain, Membrane; details: Not Active = under 50% inhibition at 10 µM
[4] = DRUGMATRIX: Platelet-Derived Growth Factor (PDGF) radioligand binding (ligand: [125I] PDGF); assay type: cell-based; details: nih3t3; Not Active = under 50% inhibition at 10 µM
[5] = DRUGMATRIX: Purinergic P2X radioligand binding (ligand: [3H] alpha, beta-Methylene-ATP); assay type: cell membranes, Oryctolagus cuniculus, New Zealand albino, Urinary bladder, Membrane; details: Not Active = under 50% inhibition at 10 µM
[6] = biological target: T1, Amine oxidase [flavin-containing] A (Homo sapiens, UniProt P21397); assay: DRUGMATRIX: Monoamine Oxidase MAO-A enzyme inhibition (substrate: Kynuramine); parameters: species or system BTI-TN-5B1-4; details: bti-tn-5b1-4; Not Active = under 50% inhibition at 10 µM
T1 sequence (P21397 whole entry): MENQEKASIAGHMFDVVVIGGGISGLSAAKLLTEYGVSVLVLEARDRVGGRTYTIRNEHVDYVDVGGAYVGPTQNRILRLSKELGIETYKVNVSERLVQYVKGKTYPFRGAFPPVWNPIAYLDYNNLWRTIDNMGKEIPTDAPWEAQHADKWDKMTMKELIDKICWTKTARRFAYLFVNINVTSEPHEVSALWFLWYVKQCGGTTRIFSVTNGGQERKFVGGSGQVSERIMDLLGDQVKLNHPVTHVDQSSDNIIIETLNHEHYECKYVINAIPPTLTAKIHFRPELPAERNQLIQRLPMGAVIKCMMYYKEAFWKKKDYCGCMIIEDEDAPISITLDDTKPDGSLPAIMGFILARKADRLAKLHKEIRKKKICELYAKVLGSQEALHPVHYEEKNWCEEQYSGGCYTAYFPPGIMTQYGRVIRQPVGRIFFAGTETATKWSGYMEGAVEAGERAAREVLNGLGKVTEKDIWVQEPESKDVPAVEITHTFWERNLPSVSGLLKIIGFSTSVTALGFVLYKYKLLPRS

[7] = biological target: T2, C-X-C chemokine receptor type 2 (Homo sapiens, UniProt P25025); assay type: cell membranes, Membrane; details: cho-k1; also: in other assays of this panel Not Active means under 50% inhibition at 10 µM
T2 sequence (P25025 whole entry): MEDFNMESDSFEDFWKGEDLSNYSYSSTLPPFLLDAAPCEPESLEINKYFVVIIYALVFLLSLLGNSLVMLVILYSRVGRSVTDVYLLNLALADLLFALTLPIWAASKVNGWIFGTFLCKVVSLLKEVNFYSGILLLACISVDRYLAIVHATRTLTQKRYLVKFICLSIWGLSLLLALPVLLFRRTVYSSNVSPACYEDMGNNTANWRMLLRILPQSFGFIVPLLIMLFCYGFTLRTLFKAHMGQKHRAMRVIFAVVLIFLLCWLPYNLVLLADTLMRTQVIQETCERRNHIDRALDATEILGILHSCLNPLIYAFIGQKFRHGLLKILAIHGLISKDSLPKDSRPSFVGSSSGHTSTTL

[8] = biological target: T3, Alpha-2C adrenergic receptor (Homo sapiens, UniProt P18825); assay: DRUGMATRIX: Adrenergic Alpha-2C radioligand binding (ligand: [3H] MK-912); assay type: cell membranes, Sf9, Membrane; details: sf9
T3 sequence (P18825 whole entry): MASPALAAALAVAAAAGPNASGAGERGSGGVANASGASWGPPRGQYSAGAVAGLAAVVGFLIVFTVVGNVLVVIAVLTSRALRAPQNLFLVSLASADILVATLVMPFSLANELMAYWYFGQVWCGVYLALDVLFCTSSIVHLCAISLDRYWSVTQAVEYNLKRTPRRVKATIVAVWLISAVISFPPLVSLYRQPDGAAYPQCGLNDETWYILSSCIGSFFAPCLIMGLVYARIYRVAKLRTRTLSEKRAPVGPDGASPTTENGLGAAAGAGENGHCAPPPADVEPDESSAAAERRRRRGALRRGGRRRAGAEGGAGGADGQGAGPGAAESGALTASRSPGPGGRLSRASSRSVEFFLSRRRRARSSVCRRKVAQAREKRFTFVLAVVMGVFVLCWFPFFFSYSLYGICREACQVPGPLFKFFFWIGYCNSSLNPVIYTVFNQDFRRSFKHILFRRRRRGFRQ

[9] = biological target: T4, Interstitial collagenase (Homo sapiens, UniProt P03956); assay type: tissue-based, Rheumatoid synovial fibroblasts;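 also: MMP-1 enzyme inhibition assay using a peptide substrate; in other assays of this panel Not Active means under 50% inhibition at 10 µM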
T4 sequence (P03956 whole entry): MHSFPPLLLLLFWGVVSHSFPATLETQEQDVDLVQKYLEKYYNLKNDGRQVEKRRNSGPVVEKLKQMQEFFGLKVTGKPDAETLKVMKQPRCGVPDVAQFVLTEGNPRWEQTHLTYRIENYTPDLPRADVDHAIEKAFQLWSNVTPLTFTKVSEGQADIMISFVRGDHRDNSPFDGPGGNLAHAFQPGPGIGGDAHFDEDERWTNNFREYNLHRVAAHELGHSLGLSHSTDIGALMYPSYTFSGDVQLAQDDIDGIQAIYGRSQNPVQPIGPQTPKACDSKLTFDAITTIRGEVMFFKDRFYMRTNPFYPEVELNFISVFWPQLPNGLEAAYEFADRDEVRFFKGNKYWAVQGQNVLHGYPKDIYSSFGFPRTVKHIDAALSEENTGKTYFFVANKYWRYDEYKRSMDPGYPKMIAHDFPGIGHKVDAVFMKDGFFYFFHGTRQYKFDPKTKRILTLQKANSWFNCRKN

[10] = biological target: Delta-type opioid receptor (Homo sapiens, UniProt P41143); assay type: cell membranes, HEK293, Membrane; details: hek293; also: in other assays of this panel Not Active means under 50% inhibition at 10 µM
Sequence of Delta-type opioid receptor (P41143 whole entry): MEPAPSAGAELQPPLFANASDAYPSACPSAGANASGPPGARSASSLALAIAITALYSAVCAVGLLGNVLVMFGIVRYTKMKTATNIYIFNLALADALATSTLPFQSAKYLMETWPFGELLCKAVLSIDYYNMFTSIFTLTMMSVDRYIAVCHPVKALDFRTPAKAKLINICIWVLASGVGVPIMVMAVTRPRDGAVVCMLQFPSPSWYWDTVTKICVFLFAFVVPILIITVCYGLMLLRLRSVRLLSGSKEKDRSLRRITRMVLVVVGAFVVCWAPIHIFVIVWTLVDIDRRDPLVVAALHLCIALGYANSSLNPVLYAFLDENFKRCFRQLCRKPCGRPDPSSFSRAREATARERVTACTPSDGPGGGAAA

[11] = biological target: Melanocortin receptor 3 (Homo sapiens, UniProt P41968); assay type: cell membranes, Membrane; details: hek293; also: in other assays of this panel Not Active means under 50% inhibition at 10 µM
Sequence of Melanocortin receptor 3 (P41968 whole entry): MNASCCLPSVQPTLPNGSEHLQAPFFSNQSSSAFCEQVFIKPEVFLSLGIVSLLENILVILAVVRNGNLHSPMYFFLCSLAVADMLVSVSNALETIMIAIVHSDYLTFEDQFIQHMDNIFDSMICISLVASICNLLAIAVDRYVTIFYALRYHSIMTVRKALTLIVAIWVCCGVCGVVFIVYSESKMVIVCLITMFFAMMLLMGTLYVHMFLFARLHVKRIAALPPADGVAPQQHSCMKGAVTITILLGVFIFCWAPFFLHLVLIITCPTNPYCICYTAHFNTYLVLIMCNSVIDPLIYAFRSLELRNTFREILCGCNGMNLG

[12] = biological target: T5, Alpha-1A adrenergic receptor (Rattus norvegicus, UniProt P43140); assay: DRUGMATRIX: Alpha-1A adrenergic receptor radioligand binding (ligand: prazosin); assay type: cell membranes, Wistar, Submaxillary gland, Membrane; details: Not Active = under 50% inhibition at 10 µM
T5 sequence (P43140 whole entry): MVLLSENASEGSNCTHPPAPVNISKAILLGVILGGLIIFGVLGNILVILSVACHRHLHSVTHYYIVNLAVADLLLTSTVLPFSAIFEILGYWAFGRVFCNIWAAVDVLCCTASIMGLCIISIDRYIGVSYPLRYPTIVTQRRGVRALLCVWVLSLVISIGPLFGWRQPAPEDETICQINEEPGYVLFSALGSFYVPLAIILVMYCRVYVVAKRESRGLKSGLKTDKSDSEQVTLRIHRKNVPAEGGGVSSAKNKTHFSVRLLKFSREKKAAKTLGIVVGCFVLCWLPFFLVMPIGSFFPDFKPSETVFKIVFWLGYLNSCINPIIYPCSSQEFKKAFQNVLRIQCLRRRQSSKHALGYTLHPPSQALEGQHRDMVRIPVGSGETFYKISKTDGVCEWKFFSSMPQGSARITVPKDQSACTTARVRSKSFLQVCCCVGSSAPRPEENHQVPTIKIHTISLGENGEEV

IVERMECTIN
IC50 [1]: Not Active
Ki [1]: Not Active
IC50 [2]: Not Active
Ki [2]: Not Active
IC50 [3]: Not Active
Ki [3]: Not Active
IC50 [4]: Not Active
Ki [4]: Not Active
IC50 [5]: Not Active
Ki [5]: Not Active
IC50 [6]: Not Active
Ki [6]: Not Active
IC50 [7]: Not Active
Ki [7]: Not Active
IC50 ([8]; read-out: IC50): 3.92 µM
Ki ([8]; read-out: Ki): 0.57 µM
IC50 [9]: Not Active
Ki [9]: Not Active
IC50 [10]: Not Active
Ki [10]: Not Active
IC50 [11]: Not Active
Ki [11]: Not Active
IC50 [12]: Not Active
Ki [12]: Not Active
